Measured values: ChEMBL document CHEMBL1201862, “PubChem BioAssay data set” (2004)
The source made the active and inactive calls.

Legend:
[1] = biological target: T1, Beta Lactamase (Pseudomonas aeruginosa, UniProt Q932Y6); experiment: concentration-dependent VIM-2 enzyme inhibition – biochemical, epi-absorbance readout, selective inhibitors, dose response (AID 1919)
[2] = biological target: Beta-lactamase (Salmonella choleraesuis (strain SC-B67), UniProt Q5J463); experiment: Epi-absorbance-based counterscreen for selective VIM-2 inhibitors: dose response biochemical high throughput screening assay to identify inhibitors of TEM-1 serine-beta-lactamase.
[3] = biological target: T1, Beta Lactamase; experiment: VIM-2 CCF2 hydrolysis inhibition, assay artifact filter – biochemical, FRET readout, CCF2 substrate, artefact control for selective VIM-2 inhibitor project, dose response (AID 1926)
[4] = biological target: T2, Beta-lactamase (Pseudomonas aeruginosa, UniProt Q79MP6); experiment: inhibition of IMP-1 beta-lactamase activity – biochemical, epi-absorbance, selectivity assay for VIM-2 inhibitor project, dose response (AID 1920)
[5] = biological target: T2, Beta-lactamase; experiment: […] counterscreen for selective VIM-2 inhibitors: dose response biochemical high throughput screening assay to identify inhibitors of IMP-1 metallo-beta-lactamase.
[6] = viability loss in HEK293 cells – cell-based, plate reader, cherry-picked samples, cytotoxicity control, dose response (AID 743446); assay type: functional
[7] = A549 cell cytotoxicity, dose response, cytotoxicity control, plate reader, cherry-pick, antagonist series (AID 743412); assay type: functional, cell-based
[8] = toxicity toward HepG2 liver cells – cell-based, plate reader, cherry-pick, antagonist series, cytotoxicity control, dose response (AID 743416); assay type: functional
[9] = tested on: A549; experiment: viability loss in A549 cells – cell-based, plate reader, cherry-pick samples, cytotoxicity control, dose response (AID 687028); assay type: functional; details: Homo sapiens
[10] = biological target: Photoreceptor-specific nuclear receptor (Homo sapiens, UniProt Q9Y5X4); assay type: functional, cell-based;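 further: CHO-S cells with Gal4-NCOR and VP16-NR2E3 two-hybrid luciferase reporter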
[11] = blockade of melanocortin 4 receptor signaling – cell-based, plate reader, cherry pick, counter-screen for LGR2 antagonist project, dose response (AID 743444); assay type: functional;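 further: transfected HEK 293 cells stimulated with alpha-MSH peptide; potency of inhibitors of the alpha-MSH evoked signal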
[12] = blockers of bursicon-stimulated LGR2 cAMP reporter – cell-based, HEK293, CRE-luciferase reporter, cherry pick, set 2, dose response (AID 743343); assay type: functional;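 further: transfected cells were stimulated with diluted bursicon conditioned medium after compound addition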
[13] = cells; assay type: functional, cell-based; details: HEK-CNG
[14] = biological target: Galanin receptor type 3 (Homo sapiens, UniProt O60755); experiment: Fluorescence-based cell-based primary high throughput dose response assay to identify antagonists of the Galanin Receptor 3 (GalR3).; assay type: functional
[15] = cytotoxicity in HEK293 background cells – cell-based, dry powder, set 2, counter-screen for EBV LMP1 inhibitor project, dose response (AID 624374); assay type: functional
[16] = inhibitors of EBV LMP1 NF-kappaB signaling – cell-based, luciferase reporter, luminescence, dry powder, set 2, dose response (AID 624376); assay type: functional
[17] = biological target: 5-hydroxytryptamine receptor 2A (Mus musculus, UniProt P35363); assay type: functional, cell-based;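 further: CHO-K1 cells with tagged receptor and beta-arrestin; agonist potency measured as compound-induced activation of the receptor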
[18] = biological target: Mu-type opioid receptor (Homo sapiens, UniProt P35372); assay type: functional, cell-based;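 further: U2OS cells with beta-arrestin recruitment to OPRM1 by beta-gal complementation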
[19] = OVCAR8 cell viability loss – plate reader, dry powder samples, PAX8 project, dose response (AID 743197); assay type: functional, cell-based; details: OVCAR-8
[20] = biological target: Paired box protein Pax-8 (Homo sapiens, UniProt Q06710); experiment: PAX8 transcriptional activity inhibition in RMG-I – RMG-I cells, luciferase, cherry-pick, dose response (AID 687027); assay type: functional, cell-based;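 further: luciferase reporter driven by Pax8 target thyroperoxidase promoter measured by SteadyGlo luminescence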
[21] = OVCAR-3 cell viability loss – plate reader, dry powder samples, PAX8 inhibitor project, dose response (AID 743044); assay type: functional, cell-based
[22] = viability loss in LCL cells – cell-based, plate reader, dry powder, set 2, cytotoxicity control, dose response (AID 624367); assay type: functional
[23] = biological target: T3, Trace amine-associated receptor 1 (Homo sapiens, UniProt Q96RJ0); experiment: Counterscreen for agonists of the human trace amine associated receptor 1 (hTAAR1): Fluorescence-based cell-based high throughput dose response assay to identify hTAAR1 agonist that also desensitize TAAR1 receptor response.; assay type: functional
[24] = biological target: T3, Trace amine-associated receptor 1; experiment: Fluorescence-based cell-based high throughput dose response assay to identify agonists of the human trace amine associated receptor 1 (TAAR1).; assay type: functional
[25] = cells; assay type: functional, cell-based
[26] = cells; assay type: functional, cell-based; remark: listed apart in the source
[27] = biological target: T4, Nuclear receptor subfamily 0 group B member 1 (Homo sapiens, UniProt P51843); assay type: functional, cell-based;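 further: HEK293T cells transfected with SF-1 and DAX-1 plus StAR promoter luciferase reporter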
T4 sequence (P51843 whole entry): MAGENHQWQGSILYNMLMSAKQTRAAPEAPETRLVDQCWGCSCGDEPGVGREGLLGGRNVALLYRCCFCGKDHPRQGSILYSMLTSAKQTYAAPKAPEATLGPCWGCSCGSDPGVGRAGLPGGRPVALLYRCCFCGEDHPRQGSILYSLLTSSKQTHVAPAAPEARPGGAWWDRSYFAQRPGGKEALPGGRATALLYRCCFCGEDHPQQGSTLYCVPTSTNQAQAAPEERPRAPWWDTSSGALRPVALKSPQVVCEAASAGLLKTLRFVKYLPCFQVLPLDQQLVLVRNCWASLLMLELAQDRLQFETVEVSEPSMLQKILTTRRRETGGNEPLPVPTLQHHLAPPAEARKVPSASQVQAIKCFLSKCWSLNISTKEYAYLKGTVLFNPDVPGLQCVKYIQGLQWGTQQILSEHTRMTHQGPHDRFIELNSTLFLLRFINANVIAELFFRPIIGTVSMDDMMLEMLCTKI

[28] = cells; assay type: functional, cell-based; remark: listed apart in the source
[29] = biological target: Protein Wnt-3a (Mus musculus, UniProt P27467); experiment: SAR analysis of small molecule antagonists of Gli-SUFU in a Wnt3a luminescent reporter assay.; assay type: functional
[30] = Luminescence Cell-Based Dose Response HTS to Identify Activators of Luciferase Translation or Activity in H4 […] Cells. [Related pubchem assays: 1829 (Project Summary), 1814 (Primary HTS)]; assay type: functional
[31] = tested on: H4; experiment: Luminescence Cell-Based Dose Response HTS to Identify Activators of 5'UTR Stem-Loop Driven Prion Protein mRNA Translation in H4 Neuroglioblastoma Cells. [Related pubchem assays: 1829 (Project Summary), 1814 (Primary HTS)]; assay type: functional; details: Homo sapiens
[32] = tested on: Streptococcus; experiment: GAS UMAA2166 growth inhibition – luminescence, BacTiterGlo, counter-screen for streptokinase expression inhibitor project, dose response (AID 1915); assay type: functional, organism-based;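 further: potency for reduction of bacterial viability or growth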
[33] = viability loss in HEK293T cells – cell-based, cherry-picks, cytotoxicity control for HIV Vif inhibitor project, dose response (AID 652208); assay type: functional
[34] = tested on: Streptococcus sp. 'group A'; experiment: Streptococcus pyogenes SK(-)GAS viability under kanamycin – luminescence, BacTiterGlo, confirmation, counter-screen for streptokinase expression inhibitor project, dose response (AID 1900); assay type: functional, organism-based
[35] = Luminescence Cell-Based Dose Confirmation HTS to Identify Activators of 5'UTR Stem-Loop Driven Alpha-Synuclein mRNA Translation in H4 Neuroglioblastoma Cells. [Related pubchem assays: 1829 (Project Summary), 1814 (Primary HTS)]; assay type: functional
[36] = biological target: T5, Streptokinase A (Streptococcus pyogenes serotype M1, UniProt P10520); experiment: viability-normalized secreted streptokinase activity reduction – plasminogen activation absorbance, OD405, dose response (AID 1914); assay type: functional, Streptococcus pyogenes M1 GAS;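 further: secreted streptokinase activity via plasminogen activation per viability signal from cell pellet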
T5 sequence (P10520 whole entry): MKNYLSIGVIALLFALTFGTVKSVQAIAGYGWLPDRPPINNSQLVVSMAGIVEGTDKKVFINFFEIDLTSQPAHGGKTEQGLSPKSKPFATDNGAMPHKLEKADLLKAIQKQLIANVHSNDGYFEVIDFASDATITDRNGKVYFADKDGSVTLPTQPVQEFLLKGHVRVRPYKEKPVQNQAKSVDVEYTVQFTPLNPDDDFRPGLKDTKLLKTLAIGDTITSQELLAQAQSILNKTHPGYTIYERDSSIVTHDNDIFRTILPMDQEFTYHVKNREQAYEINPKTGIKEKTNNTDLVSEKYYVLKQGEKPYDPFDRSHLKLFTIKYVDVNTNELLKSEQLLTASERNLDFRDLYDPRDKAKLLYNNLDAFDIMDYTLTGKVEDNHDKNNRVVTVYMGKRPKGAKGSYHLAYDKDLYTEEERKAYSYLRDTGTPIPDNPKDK

[37] = biological target: SWI/SNF-related matrix-associated actin-dependent regulator of chromatin subfamily A member 2 (Homo sapiens, UniProt P51531); experiment: Luminescence-based cell-based high throughput dose response assay to identify activators of the function of SWI/SNF related, matrix associated, actin dependent regulator of chromatin, subfamily a, member 2 (SMARCA2, BRM).; assay type: functional
[38] = biological target: Prothrombin (Homo sapiens, UniProt P00734); experiment: Thrombin 1536 HTS Dose Response Confirmation. [Related pubchem assays: 1046 (Thrombin 1536 HTS; hits were confirmed in this assay)]; assay type: functional
[39] = Counterscreen for activators of the function of SWI/SNF related, matrix associated, actin dependent regulator of chromatin, subfamily a, member 2 (SMARCA2, BRM): Luminescence-based cell-based high throughput dose response assay to identify non-selective compounds using the VP16 reporter assay.; assay type: functional
[40] = HIV-1 AD8 envelope cell-cell fusion blockers – cherry-pick, dose response (AID 652062); assay type: functional, cell-based;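 further: luciferase signal from cell-cell fusion driven by HIV-1 clade B AD8 Env; potency is for inhibitors of fusion seen as a drop in luminescence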
[41] = blockers of HIV-1 envelope-mediated cell-cell fusion – cherry-pick, dose response (AID 652057); assay type: functional, cell-based
[42] = viability loss in CEM21 cells – cell-based, CellTiter-Glo luminescence, cherry-picked, cytotoxicity control for viral fusion inhibitor project, dose response (AID 652042); assay type: functional;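 further: potency for signal decrease meaning cytotoxicity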

T1 sequence (Q932Y6 whole entry): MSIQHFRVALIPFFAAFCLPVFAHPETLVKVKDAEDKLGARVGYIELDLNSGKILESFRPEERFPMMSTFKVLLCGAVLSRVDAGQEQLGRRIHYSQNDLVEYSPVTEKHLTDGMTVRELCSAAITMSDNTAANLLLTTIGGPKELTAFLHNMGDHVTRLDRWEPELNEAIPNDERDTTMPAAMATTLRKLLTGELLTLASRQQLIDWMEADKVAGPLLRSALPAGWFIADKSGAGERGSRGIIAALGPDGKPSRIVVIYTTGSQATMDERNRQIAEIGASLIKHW
T3 sequence (Q96RJ0 whole entry): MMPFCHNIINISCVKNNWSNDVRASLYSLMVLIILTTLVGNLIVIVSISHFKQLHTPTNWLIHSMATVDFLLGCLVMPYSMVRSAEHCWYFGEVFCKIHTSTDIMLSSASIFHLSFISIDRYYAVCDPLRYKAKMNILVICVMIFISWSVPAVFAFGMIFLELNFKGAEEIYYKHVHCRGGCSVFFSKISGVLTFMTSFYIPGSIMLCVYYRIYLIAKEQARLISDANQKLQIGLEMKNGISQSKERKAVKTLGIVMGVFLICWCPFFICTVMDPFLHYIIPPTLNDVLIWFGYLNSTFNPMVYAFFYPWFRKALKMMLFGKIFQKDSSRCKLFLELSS
T2 sequence (Q79MP6 whole entry): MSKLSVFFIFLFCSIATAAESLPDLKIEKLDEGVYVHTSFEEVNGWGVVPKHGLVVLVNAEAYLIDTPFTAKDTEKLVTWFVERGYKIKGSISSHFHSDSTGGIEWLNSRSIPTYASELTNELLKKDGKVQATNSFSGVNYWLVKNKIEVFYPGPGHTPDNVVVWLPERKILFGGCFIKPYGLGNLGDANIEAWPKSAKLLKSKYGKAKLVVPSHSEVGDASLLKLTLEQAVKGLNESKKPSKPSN
Sequence of 5-hydroxytryptamine receptor 2A (P35363 whole entry): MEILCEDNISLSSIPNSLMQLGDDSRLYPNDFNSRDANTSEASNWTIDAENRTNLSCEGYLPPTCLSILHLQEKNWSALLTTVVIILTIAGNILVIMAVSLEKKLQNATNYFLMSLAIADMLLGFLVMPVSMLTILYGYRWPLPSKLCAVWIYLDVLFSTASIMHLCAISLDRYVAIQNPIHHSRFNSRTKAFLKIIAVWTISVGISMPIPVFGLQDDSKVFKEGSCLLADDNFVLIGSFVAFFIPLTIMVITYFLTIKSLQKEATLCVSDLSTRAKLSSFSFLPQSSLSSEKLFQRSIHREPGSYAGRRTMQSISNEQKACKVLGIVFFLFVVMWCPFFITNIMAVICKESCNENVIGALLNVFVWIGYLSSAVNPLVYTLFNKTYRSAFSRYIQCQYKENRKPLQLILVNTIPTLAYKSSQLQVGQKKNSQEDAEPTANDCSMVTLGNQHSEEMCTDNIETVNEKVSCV
Sequence of Mu-type opioid receptor (P35372 whole entry): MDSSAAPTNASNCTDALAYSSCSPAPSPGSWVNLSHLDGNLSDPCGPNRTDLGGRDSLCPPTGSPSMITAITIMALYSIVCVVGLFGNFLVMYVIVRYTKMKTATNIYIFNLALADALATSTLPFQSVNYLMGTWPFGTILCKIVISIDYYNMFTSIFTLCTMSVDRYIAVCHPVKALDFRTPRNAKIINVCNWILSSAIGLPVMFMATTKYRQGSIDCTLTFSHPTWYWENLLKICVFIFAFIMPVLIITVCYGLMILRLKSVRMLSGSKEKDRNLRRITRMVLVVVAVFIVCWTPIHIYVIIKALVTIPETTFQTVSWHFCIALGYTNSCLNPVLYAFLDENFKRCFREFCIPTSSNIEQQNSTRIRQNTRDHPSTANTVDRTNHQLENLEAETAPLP
Sequence of Paired box protein Pax-8 (Q06710 whole entry): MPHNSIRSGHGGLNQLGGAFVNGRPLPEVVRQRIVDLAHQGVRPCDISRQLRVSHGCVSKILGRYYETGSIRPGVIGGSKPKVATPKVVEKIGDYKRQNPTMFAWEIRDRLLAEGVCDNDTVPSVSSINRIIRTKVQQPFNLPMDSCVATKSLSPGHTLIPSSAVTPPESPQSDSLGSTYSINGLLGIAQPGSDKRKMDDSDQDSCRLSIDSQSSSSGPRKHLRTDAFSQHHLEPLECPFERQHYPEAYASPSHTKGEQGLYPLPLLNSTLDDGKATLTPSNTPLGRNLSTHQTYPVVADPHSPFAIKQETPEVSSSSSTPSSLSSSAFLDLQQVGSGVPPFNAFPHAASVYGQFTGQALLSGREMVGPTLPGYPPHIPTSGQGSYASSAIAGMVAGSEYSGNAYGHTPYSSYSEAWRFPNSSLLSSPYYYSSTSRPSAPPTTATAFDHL
Sequence of Beta-lactamase (Salmonella choleraesuis (strain SC-B67), UniProt Q5J463) (Q5J463 whole entry): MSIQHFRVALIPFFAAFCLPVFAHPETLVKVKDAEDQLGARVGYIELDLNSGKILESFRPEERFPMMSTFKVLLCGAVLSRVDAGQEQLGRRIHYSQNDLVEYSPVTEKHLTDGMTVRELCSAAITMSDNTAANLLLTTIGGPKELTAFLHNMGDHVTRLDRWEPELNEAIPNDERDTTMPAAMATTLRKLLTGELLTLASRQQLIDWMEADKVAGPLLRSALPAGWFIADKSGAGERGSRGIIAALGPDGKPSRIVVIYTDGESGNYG
Sequence of SWI/SNF-related matrix-associated actin-dependent regulator of chromatin subfamily A member 2 (P51531 whole entry): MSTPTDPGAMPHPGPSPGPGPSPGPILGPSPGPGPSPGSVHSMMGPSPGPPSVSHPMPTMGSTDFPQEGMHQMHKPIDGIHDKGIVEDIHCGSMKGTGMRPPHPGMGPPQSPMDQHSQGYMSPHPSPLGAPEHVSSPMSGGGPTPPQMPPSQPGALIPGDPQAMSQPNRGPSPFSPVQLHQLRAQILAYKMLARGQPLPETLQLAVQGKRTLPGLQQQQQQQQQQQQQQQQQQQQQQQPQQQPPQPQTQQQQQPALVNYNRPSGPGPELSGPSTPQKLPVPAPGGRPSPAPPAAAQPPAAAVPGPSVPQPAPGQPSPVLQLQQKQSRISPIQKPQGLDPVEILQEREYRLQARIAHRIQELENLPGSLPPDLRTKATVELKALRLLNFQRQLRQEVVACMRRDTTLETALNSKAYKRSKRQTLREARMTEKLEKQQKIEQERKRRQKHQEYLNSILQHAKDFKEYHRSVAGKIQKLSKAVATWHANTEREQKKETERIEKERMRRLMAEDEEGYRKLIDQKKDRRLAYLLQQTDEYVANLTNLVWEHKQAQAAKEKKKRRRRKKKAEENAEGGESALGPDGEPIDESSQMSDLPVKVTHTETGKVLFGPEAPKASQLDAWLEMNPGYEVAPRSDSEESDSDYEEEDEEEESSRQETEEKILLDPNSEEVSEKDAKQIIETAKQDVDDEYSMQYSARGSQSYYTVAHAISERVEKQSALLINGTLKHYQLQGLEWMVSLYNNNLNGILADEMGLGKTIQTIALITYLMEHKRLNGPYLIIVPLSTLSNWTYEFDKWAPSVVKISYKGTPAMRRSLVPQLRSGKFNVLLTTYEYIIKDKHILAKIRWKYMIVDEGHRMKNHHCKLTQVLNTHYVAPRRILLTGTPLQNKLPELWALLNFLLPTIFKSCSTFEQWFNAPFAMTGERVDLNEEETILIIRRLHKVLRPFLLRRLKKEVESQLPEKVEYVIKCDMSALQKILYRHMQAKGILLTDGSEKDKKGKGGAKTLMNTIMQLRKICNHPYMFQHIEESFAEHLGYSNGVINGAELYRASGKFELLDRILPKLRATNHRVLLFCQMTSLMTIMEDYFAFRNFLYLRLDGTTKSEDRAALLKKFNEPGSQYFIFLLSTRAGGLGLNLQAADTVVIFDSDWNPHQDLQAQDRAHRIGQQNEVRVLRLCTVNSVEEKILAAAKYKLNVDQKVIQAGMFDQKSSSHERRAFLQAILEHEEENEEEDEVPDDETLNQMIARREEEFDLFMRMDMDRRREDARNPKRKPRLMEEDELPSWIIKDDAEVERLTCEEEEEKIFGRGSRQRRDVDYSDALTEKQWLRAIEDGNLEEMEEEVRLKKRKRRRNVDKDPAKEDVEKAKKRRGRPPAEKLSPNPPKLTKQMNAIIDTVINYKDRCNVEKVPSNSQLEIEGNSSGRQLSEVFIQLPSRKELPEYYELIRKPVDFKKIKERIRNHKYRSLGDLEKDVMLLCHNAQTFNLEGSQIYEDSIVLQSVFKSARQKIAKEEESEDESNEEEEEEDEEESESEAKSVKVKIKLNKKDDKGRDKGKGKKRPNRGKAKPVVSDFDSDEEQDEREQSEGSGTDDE
Sequence of Photoreceptor-specific nuclear receptor (Q9Y5X4 whole entry, the tested form may be a part): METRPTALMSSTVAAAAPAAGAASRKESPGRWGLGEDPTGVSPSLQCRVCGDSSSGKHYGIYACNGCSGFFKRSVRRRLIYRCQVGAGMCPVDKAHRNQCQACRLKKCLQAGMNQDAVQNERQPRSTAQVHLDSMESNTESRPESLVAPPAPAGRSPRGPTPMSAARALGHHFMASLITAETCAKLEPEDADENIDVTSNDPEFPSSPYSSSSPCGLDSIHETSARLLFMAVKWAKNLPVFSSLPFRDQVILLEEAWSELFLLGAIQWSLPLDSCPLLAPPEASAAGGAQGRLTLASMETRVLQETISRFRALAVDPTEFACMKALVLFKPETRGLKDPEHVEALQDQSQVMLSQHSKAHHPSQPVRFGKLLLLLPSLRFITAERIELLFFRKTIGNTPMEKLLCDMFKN
Sequence of Galanin receptor type 3 (O60755 whole entry): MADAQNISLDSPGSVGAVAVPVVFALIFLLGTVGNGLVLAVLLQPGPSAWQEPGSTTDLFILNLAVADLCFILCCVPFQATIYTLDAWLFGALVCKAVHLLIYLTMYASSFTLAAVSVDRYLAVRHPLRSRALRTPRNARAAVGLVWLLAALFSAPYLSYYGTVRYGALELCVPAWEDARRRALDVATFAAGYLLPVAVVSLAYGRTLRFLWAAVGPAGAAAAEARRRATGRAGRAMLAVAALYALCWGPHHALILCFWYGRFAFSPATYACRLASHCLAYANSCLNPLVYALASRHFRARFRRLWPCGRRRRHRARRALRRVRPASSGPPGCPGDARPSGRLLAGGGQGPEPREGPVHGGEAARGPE

COc1ccc(OC)c(C2C(C(=O)c3ccco3)=C(O)C(=O)N2Cc2cccnc2)c1 (stereo not given)
IC50 [1]: 1.94 µM (active)
IC50 [2]: > 59.6 µM (inactive)
IC50 [3]: 0.7 µM (active)
IC50 [4]: > 59.6 µM (inactive)
IC50 [5]: > 59.6 µM (inactive)

Cc1cnc(NC(=O)C2CC(=O)N(c3cccc(Cl)c3)C2)s1 (stereo not given)
AC50 [6]: > 52 µM (inactive)
AC50 [7]: 4.65 µM (active)
AC50 [8]: 0.763 µM (active)
AC50 [9]: 14.8 µM (active)
IC50 [10]: 0.0757 µM (active)
AC50 [11]: 5.08 µM (active)
AC50 [12]: 4.8 µM (active)

CCCCCC(O)C=CC1C(O)CC(O)C1CC=CCCCC(=O)O (stereo not given)
EC50 [13]: > 29.9 µM (inactive)
IC50 [14]: > 0.123 µM (active)

C[C@H](CO)N1C[C@H](C)[C@@H](CN(C)S(=O)(=O)c2cccc(F)c2)Oc2ncc(C#CC3CCCCC3)cc2C1=O
AbsAC35 [15]: 324.37 µM
AbsAC35 [16]: 44.29 µM

Clc1ccccc1CN1CCN(c2ncccn2)CC1
EC50 [17]: 0.407 µM (active)
EC50 [18]: 92.5 µM (inactive)

O=C(Nc1ccc(C(F)(F)F)cc1)Nc1ccc2c(c1)[C@H]1C[C@@H](CC(=O)N3CCc4ccccc4C3)O[C@@H](CO)[C@H]1O2
AC50 [19]: > 70 µM (inactive)
AC50 [20]: 10.7 µM (active)
AC50 [21]: 63.1 µM (active)
AbsAC35 [22]: 44.28 µM

COc1cc(C)c(NC(=O)C(S)=NCCc2ccccc2)cc1C
IC50 [23]: 2.38 µM (active)
EC50 [24]: 0.766 µM (active)
IC50 [25]: > 29.9 µM (inactive)
EC50 [26]: > 29.9 µM (inactive)

CC(=O)c1sc(Nc2ccc(Oc3ccccc3)cc2)nc1C
IC50 [27]: > 67.6 µM (inactive)
IC50 [28]: > 67.6 µM (inactive)

O=C(Nc1cc(N2CCCC2)ncn1)c1ccccc1
IC50 [29]: > 21.8 µM (inactive)

O=C1Nc2ccccc2S/C1=C/Nc1cccc(Cl)c1
EC50 [30]: 32.5 µM (active)
EC50 [31]: > 120 µM (not active)
EC50 [32]: 6.87 µM (active)
AC50 [33]: > 52 µM (inactive)
EC50 [34]: 17.9 µM (active)
EC50 [35]: > 120 µM (not active)
EC50 [36]: > 150 µM (not active)

OCCCCCN=c1cc(-c2ccccc2)oc2ccc(Cl)cc12
EC50 [37]: > 10.1 µM (inactive)
IC50 [38]: 3.04 µM (active)
EC50 [30]: 8.23 µM (active)
EC50 [31]: 15.2 µM (active)
EC50 [39]: > 10.1 µM (inactive)
EC50 [35]: 14.4 µM (active)

COc1ccc2c3c([nH]c2c1)[C@H](CO)N(C(=O)Nc1cccc(F)c1)CC31CN(S(=O)(=O)c2cccc(C)c2)C1
AC50 [40]: 38.1 µM (active)
AC50 [41]: 27.7 µM (active)
AC50 [42]: 27.5 µM (active)
